Experimental data reported in US20110112308A1 (NOVARTIS AG, priority 2006, published 2011).

Assays:
Format in all cases: physicochemical
[1] = Solid samples held at 93% r.h. (XRPD, TGA); settings: for Solid State (EQ 93% r.h.) Crystallinity by XRPD: either 7 or 10 days
Procedure: An approximate solubility of the below-listed salts was determined in water and at pH 1 by suspending 5-15 mg of the salt in 1 mL of solvent. The samples were allowed to equilibrate at ambient temperature for at least 20 hours. The supernatant was filtered and used for the solubility determination, which was done gravimetrically, for the aqueous solubility, and by UV-VIS spectroscopy for pH 1. The solid residue was analyzed by XRPD. […] They were subsequently analyzed by XRPD and TGA, if the latter deemed necessary. Only irreversible or slowly reversible events can be detected.

[2] = Intrinsic dissolution rate, rotation disk method
Procedure: Intrinsic Dissolution: […] […] Pellets of the other salts remained intact for at least several minutes enabling the determination of the intrinsic dissolution rate. Dissolution rate studies were performed using the rotation disk method ([…] Instrument). A single rotation speed of 200 r.p.m. was used to dissolve drug substance into a 500 mL vessel at 37° C. The solution was continuously pumped through a UV cell measurement and returned to the dissolution vessel.

[3] = Solution stability (HPLC)
Procedure: (§1) All samples were prepared/diluted to a concentration of 0.2 mg/mL in methanol prior to analysis by HPLC. A freshly prepared sample of each salt was used as the reference standard for external standard calibration analysis.

[4] = Solid-state stability; settings: for Bulk stability (XRPD): 1 week
Procedure: as §1

[5] = Stability of mixtures with excipients
Procedure: as §1

[6] = Solubility, 24-hour equilibration at room temperature
Procedure: Aqueous Solubility: A carefully weighted amount (20-50 mg) of sample is dissolved in 1 ml of solvent with 24-hour equilibration at room temperature. The solubility was determined either gravimetrically or by UV-VIS spectrometry. The pH of the clear solution was also measured. However, the difficulty of determining salt solubilities in water should be stressed, since upon dissolution dissociation to the free form is possible, which affects both the solubility and the pH. It's not unlikely that attempts to make solutions of a salt at a concentration well below the reported solubility of the salt to be unsuccessful (for a full discussion see: M. Pudipeddi, A. T. M. Serajuddin, D. J. W. Grant, and P. H. Stahl in “Handbook of Pharmaceutical Salts Properties Selection and Use” page 27 and references therein).

[7] = 2 mg/mL in methanol, 1 week at 50° C.
[8] = 2 mg/mL in water, 1 week at 50° C.
[9] = 2 mg/mL, 100 mM lactate buffer pH 3.5, 1 week at 50° C.
[10] = 2% in 0.5% HPMC 4000, 1 day at RT
[11] = 2% in 0.5% Klucel HF, 1 day at RT
[12] = 2% in 0.8% Tween 80, 1 day at RT
[13] = 5% solution, 1 day at RT (diluted 1:100 in pH 6.8 buffer)
[14] = Bulk stability, 2 weeks, 50° C.
[15] = Bulk stability, 2 weeks, 50° C./20% water
[16] = Bulk stability, 2 weeks, 50° C./75% r.h.
[17] = Light study, 1200 kLux (300-800 nm)
[18] = Mixture 1: 50% PVP + 50% Crospovidone, 50° C./75% r.h., 2 weeks
[19] = Mixture 2: 50% Starch 1500 + 5% MCC 102, 50° C./75% r.h., 2 weeks
[20] = Mixture 3: 5% PVP + 5% Crospovidone + 10% Starch 1500 + 80% MCC 102, 50° C./75% r.h., 2 weeks
[21] = Mixture 4: 99% Lactose + 1% BHT/BHA, 50° C./75% r.h., 2 weeks
[22] = Mixture 5: 99% Mannitol + 1% BHT/BHA, 50° C./75% r.h., 2 weeks
[23] = Mixture 6: 50% Mannitol + 47% HPCLH21 + 1% BHT/BHA + 2% Magnesium Stearate, 50° C./75% r.h., 2 weeks
[24] = Mixture 7: 50% Cetyl Alcohol + 49% HPCLH21 + 1% Magnesium Stearate, 50° C./75% r.h., 2 weeks
[25] = Mixture 8: 100% PEG 3350, 50° C./75% r.h., 2 weeks

## 1:1 propionate salt of N-hydroxy-3-[4-[[[2-(2-methyl-1H-indol-3-yl)ethyl]amino]methyl]phenyl]-2E-2-propenamide
[1]
  Solid State (EQ 93% r.h.) Crystallinity by XRPD: Poor

## CC(O)C(=O)O.Cc1[nH]c2ccccc2c1CCNCc1ccc(/C=C/C(=O)NO)cc1.O (racemic) [Monohydrate DL-lactate salt, 1:1 monohydrate DL-lactate salt of N-hydroxy-3-[4-[[[2-(2-methyl-1H-indol-3-yl)ethyl]amino]methyl]phenyl]-2E-2-propenamide]
[2]; 0.1N HCl (Table 19)
  Intrinsic Dissolution Rate: 0.02
[2]; Water (Table 19)
  Intrinsic Dissolution Rate: 0.06
[2]; pH = 4 (Table 19)
  Intrinsic Dissolution Rate: 0.08
[3]; 2 mg/mL in 100 mM lactate buffer, pH 3.5
  pH of initial mixture: 3.57
[3]; [7]
  % DP (total degradation products): 0.71 % area
  assay: [102.8]
[3]; 2 mg/mL in water
  pH of initial mixture: 6.30
[3]; [8]
  % DP (total degradation products): 1.22 % area
  CL (appearance): A↓
  assay: [98.85]
[3]; [9]
  % DP (total degradation products): 1.31 % area
  CL (appearance): A↓*
[3]; 2 mg/mL, 100 mM lactate buffer pH 3.5, 1 week at 50° C., external standard
  assay: [99.12]
[3]; 2% in 0.5% CMC, 1 day at RT
  % DP (total degradation products): 0.49 % area
  CL (appearance): A↓↓
  assay: [77.50]
[3]; [10]
  % DP (total degradation products): 0.41 % area
  assay: [96.42]
[3]; [11]
  % DP (total degradation products): 0.43 % area
  assay: [96.99]
[3]; [12]
  % DP (total degradation products): 0.42 % area
  assay: [95.06]
[3]; [13]
  % DP (total degradation products): 0.52 % area
  CL (appearance): A↓
  assay: [99.24]
[3]; unstressed baseline of the stability study
  Unstressed (% Area): 99.51% Area
[4]; 80° C.
  Bulk stability (XRPD): no change
[4]; 80° C./75% r.h.
  Bulk stability (XRPD): no change
[4]; [14]
  % DP (total degradation products): 0.43 % area
  assay: [99.31]
[4]; [15]
  % DP (total degradation products): 0.51 % area
  assay: [100.3]
[4]; [16]
  % DP (total degradation products): 0.43 % area
  assay: [99.86]
[4]; [17]
  % DP (total degradation products): 1.68 % area
  CL (appearance): C (C = medium discoloration)
  assay: [98.65]
[5]; [18]
  % DP (total degradation products): 0.6 % area
  % DS (drug substance): 99.4 % area
[5]; [19]
  % DP (total degradation products): 0.4 % area
  % DS (drug substance): 99.6 % area
[5]; [20]
  % DP (total degradation products): 0.5 % area
  % DS (drug substance): 99.5 % area
[5]; [21]
  % DP (total degradation products): 0.5 % area
  % DS (drug substance): 99.5 % area
[5]; [22]
  % DP (total degradation products): 0.5 % area
  % DS (drug substance): 99.5 % area
[5]; [23]
  % DP (total degradation products): 0.6 % area
  % DS (drug substance): 99.3 % area
[5]; [24]
  % DP (total degradation products): 0.5 % area
  % DS (drug substance): 99.5 % area
[5]; [25]
  % DP (total degradation products): 0.6 % area
  % DS (drug substance): 99.4 % area
[5]; Standard, freshly prepared
  % DP (total degradation products): 0.4 % area
  % DS (drug substance): 99.6 % area

## CC(=O)O.Cc1[nH]c2ccccc2c1CCNCc1ccc(/C=C/C(=O)NO)cc1 [Acetate, 1:1 acetate salt of N-hydroxy-3-[4-[[[2-(2-methyl-1H-indol-3-yl)ethyl]amino]methyl]phenyl]-2E-2-propenamide]
[1]
  Solid State (EQ 93% r.h.) Crystallinity by XRPD: Good
[1]; either 7 or 10 days (time not given)
  Solid State (EQ 93% r.h.) Form by XRPD: converted to a new form
[1]; after 93% r.h. storage, (105° C.)
  Solid State (EQ 93% r.h.) LOD by TGA: LOD = 8.8%

## CC(O)C(=O)O.Cc1[nH]c2ccccc2c1CCNCc1ccc(/C=C/C(=O)NO)cc1 [Anhydrous DL-lactate salt, 1:1 anhydrous DL-lactate salt of N-hydroxy-3-[4-[[[2-(2-methyl-1H-indol-3-yl)ethyl]amino]methyl]phenyl]-2E-2-propenamide]
[2]; 0.1N HCl (Table 19)
  Intrinsic Dissolution Rate: 0.13
[2]; Water (Table 19)
  Intrinsic Dissolution Rate: 0.14
[2]; pH = 4 (Table 19)
  Intrinsic Dissolution Rate: 0.09

## Cc1[nH]c2ccccc2c1CCNCc1ccc(/C=C/C(=O)NO)cc1.O=C(O)c1ccccc1 [Benzoate, 1:1 benzoate salt of N-hydroxy-3-[4-[[[2-(2-methyl-1H-indol-3-yl)ethyl]amino]methyl]phenyl]-2E-2-propenamide]
[1]; 7 days
  Solid State (EQ 93% r.h.) Form by XRPD: No change

## CC(O)C(=O)O.Cc1[nH]c2ccccc2c1CCNCc1ccc(/C=C/C(=O)NO)cc1 [DL-lactate salt, lactate salt of N-hydroxy-3-[4-[[[2-(2-methyl-1H-indol-3-yl)ethyl]amino]methyl]phenyl]-2E-2-propenamide]
[6]
  aqueous solubility, in words: excellent
[2]
  intrinsic dissolution (rate), in words: good
[3]; both in solution and in the solid state
  stability characteristics, in words: very good stability
[5]; after 2 weeks at 50° C./75% r.h.
  stability with all excipient mixtures tested, in words: very good stability

## Cc1[nH]c2ccccc2c1CCNCc1ccc(/C=C/C(=O)NO)cc1.Cc1[nH]c2ccccc2c1CCNCc1ccc(/C=C/C(=O)NO)cc1.O=C(O)/C=C/C(=O)O [Fumarate, 2:1 fumarate salt (hemi-fumarate) of N-hydroxy-3-[4-[[[2-(2-methyl-1H-indol-3-yl)ethyl]amino]methyl]phenyl]-2E-2-propenamide]
[1]; 10 days
  Solid State (EQ 93% r.h.) Form by XRPD: No change

## Cc1[nH]c2ccccc2c1CCNCc1ccc(/C=C/C(=O)NO)cc1.O=C(O)c1cc(O)ccc1O [Gentisate, 1:1 gentisate salt of N-hydroxy-3-[4-[[[2-(2-methyl-1H-indol-3-yl)ethyl]amino]methyl]phenyl]-2E-2-propenamide]
[1]; 10 days
  Solid State (EQ 93% r.h.) Form by XRPD: No change

## Cc1[nH]c2ccccc2c1CCNCc1ccc(/C=C/C(=O)NO)cc1.Cc1[nH]c2ccccc2c1CCNCc1ccc(/C=C/C(=O)NO)cc1.O=C(O)CC(=O)O [Malonate, 2:1 malonate (hemi-malonate) salt of N-hydroxy-3-[4-[[[2-(2-methyl-1H-indol-3-yl)ethyl]amino]methyl]phenyl]-2E-2-propenamide]
[1]; 10 days
  Solid State (EQ 93% r.h.) Form by XRPD: No change

## Cc1[nH]c2ccccc2c1CCNCc1ccc(/C=C/C(=O)NO)cc1.O=P(O)(O)O [Phosphate, 1:1 phosphate salt of N-hydroxy-3-[4-[[[2-(2-methyl-1H-indol-3-yl)ethyl]amino]methyl]phenyl]-2E-2-propenamide]
[1]; 7 days
  Solid State (EQ 93% r.h.) Form by XRPD: No change

## Cc1[nH]c2ccccc2c1CCNCc1ccc(/C=C/C(=O)NO)cc1.Cc1[nH]c2ccccc2c1CCNCc1ccc(/C=C/C(=O)NO)cc1.O=C(O)CCC(=O)O [Succinate, 2:1 succinate (hemi-succinate) salt of N-hydroxy-3-[4-[[[2-(2-methyl-1H-indol-3-yl)ethyl]amino]methyl]phenyl]-2E-2-propenamide]
[1]; 10 days
  Solid State (EQ 93% r.h.) Form by XRPD: No change
